Experiments:
[1] = Displacement of [3H]flumazenil from central benzodiazepine receptor in Wistar rat brain synaptosomal membrane after 60 mins by scintillation counting
[2] = biological target: Translocator protein (Rattus norvegicus, UniProt P16257); assay: Displacement of [3H]PK11195 from peripheral benzodiazepine receptor in Wistar rat brain synaptosomal membrane after 120 mins by scintillation counting
[3] = Binding affinity to central benzodiazepine receptor

Chain of Translocator protein (P16257 whole entry, looked up): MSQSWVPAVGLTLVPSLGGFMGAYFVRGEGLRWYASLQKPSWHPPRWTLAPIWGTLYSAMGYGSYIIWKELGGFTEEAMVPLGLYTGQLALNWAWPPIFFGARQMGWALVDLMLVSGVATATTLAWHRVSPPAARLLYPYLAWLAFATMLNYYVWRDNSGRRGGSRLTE

SMILES	IC50 [1] [nM]	IC50 [2] [nM]	Ki [3] [nM]
COCCOC1N=C(c2ccccc2)c2cc(Br)ccc2NC1=O (racemic)	510	> 1000	
O=C1Nc2ccc(Br)cc2C(c2ccccc2Cl)=NC1OCCO (racemic)	48	> 1000	
CCOC1N=C(c2ccccc2)c2cc(C)ccc2NC1=O (racemic)	> 1000	> 1000	
O=C1Nc2ccc(Br)cc2C(c2ccccc2)=NC1OCCO (centres undefined)	540	> 1000	
COCCO[C@@H]1N=C(c2ccccc2)c2cc(Br)ccc2NC1=O	245	> 1000	
COCCO[C@H]1N=C(c2ccccc2)c2cc(Br)ccc2NC1=O	4930	> 1000	
CCOC1N=C(c2ccccc2)c2cc(Br)ccc2NC1=O (racemic)	> 1000	> 1000	
COCCOC1N=C(c2ccccc2Cl)c2cc(Br)ccc2NC1=O (racemic)	9	> 1000	
CCOC1N=C(c2ccccc2Cl)c2cc(Br)ccc2NC1=O (racemic)	52	> 1000	
O=C(O)CCC(=O)OC1N=C(c2ccccc2Cl)c2cc(Br)ccc2NC1=O (centres undefined) [CINAZEPAM]			72
